Source: US20240376085A1 (Janssen Pharmaceutica NV, priority 2021, published 2024)
pIC50: −log10 of the molar value.

Columns and labels:
[1] = system: IL-17A-induced G-CSF production in human normal keratinocyte (NHK); assay: NHK assay: IL-17A-induced G-CSF production in normal human keratinocytes; assay type: cell-based; conditions: Homo sapiens, Keratinocyte, 24 h, IL-17A 5 ng/mL, average if tested more than once
Outline: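 IC50 derives from G-CSF in supernatants, quantified by HTRF from a standard curve, with CellTiter-Glo viability compared to DMSO control. Before a 24 h, 37°C culture of normal human keratinocytes at 3000–4000 cells/well, compound dilutions were preincubated 1 h at rt with human IL-17A (5 ng/mL final), with 0.2% DMSO and 5% FBS.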

IL-17A : IL-17RA binding = molecular target: T1, IL-17A : IL-17RA binding (Homo sapiens, UniProt Q16552, K93Q); assay: IL-17A(FLAG-tagged):IL-17RA(His-tagged) binding disruption Eu-HTRF assay, Protocol 1; conditions: FLAG-IL-17A 2.5 nM at 2x final concentration; average if tested more than once
T1 construct: Name: IL-17A-Flag
Outline: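 IC50 came from a one-site competition fit of the acceptor/donor (665/620 nm) HTRF ratio. His-tagged IL-17RA, Eu-anti-FLAG and D2-anti-His were added after a 1 h rt compound preincubation with FLAG-tagged IL-17A dimer in PBS/0.01% Triton X-100, followed by 2 h at rt before reading.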

T1 sequence (Q16552 with tags, fused parts or gaps K93Q): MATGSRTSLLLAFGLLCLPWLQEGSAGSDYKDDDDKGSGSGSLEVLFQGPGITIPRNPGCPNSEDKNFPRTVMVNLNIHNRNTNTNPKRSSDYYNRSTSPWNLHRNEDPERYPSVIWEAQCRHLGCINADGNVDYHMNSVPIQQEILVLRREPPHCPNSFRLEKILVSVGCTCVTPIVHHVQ

Compound `O=C(CC1CC(F)(F)C1)N[C@@H](c1ccc2nc([C@@H](NC(=O)c3nonc3C3CC3)[C@@H]3C[C@@H]4[C@H](C3)C4(F)F)[nH]c2c1)C1CC1` [Example 239, 4-Cyclopropyl-N—((S)-(6-((R)-cyclopropyl(2-(3,3-difluorocyclobutyl)acetamido)methyl)-1H-benzo[d]imidazol-2-yl)((1R,3s,5S)-6,6-difluorobicyclo[3.1.0]hexan-3-yl)methyl)-1,2,5-oxadiazole-3-carboxamide] has a pIC50 [1] of over 7.30 and a pIC50 (IL-17A : IL-17RA binding) of over 7.30.
Work on `Cc1nonc1C(=O)N[C@H](c1nc2ccc([C@H](NC(=O)CC3CC(F)(F)C3)C3CC3)cc2[nH]1)[C@H]1C[C@@H]2[C@H](C1)C2(F)F` [Example 240, N—((S)-(6-((R)-Cyclopropyl(2-(3,3-difluorocyclobutyl)acetamido)methyl)-1H-benzo[d]imidazol-2-yl)((1R,3r,5S)-6,6-difluorobicyclo[3.1.0]hexan-3-yl)methyl)-4-methyl-1,2,5-oxadiazole-3-carboxamide] yielded a pIC50 [1] of under 7.00 and a pIC50 (IL-17A : IL-17RA binding) of over 7.30.
`CC(C)n1nccc1C(=O)N[C@H](c1nc2ccc([C@H](NC(=O)CC3CC(F)(F)C3)C3CC3)cc2[nH]1)[C@H]1C[C@@H]2[C@H](C1)C2(F)F` [Example 241, N—((S)-(6-((R)-Cyclopropyl(2-(3,3-difluorocyclobutyl)acetamido)methyl)-1H-benzo[d]imidazol-2-yl)((1R,3r,5S)-6,6-difluorobicyclo[3.1.0]hexan-3-yl)methyl)-1-isopropyl-1H-pyrazole-5-carboxamide] gave a pIC50 [1] of over 7.30 and a pIC50 (IL-17A : IL-17RA binding) of 7.00 to 7.30.
`Cc1nonc1C(=O)N[C@@H](CC1(C(F)(F)F)CC1)c1nc2ccc([C@H](NC(=O)CC3CC(F)(F)C3)C3CC3)cc2[nH]1` [Example 242, N—((S)-1-(6-((R)-Cyclopropyl(2-(3,3-difluorocyclobutyl)acetamido)methyl)-1H-benzo[d]imidazol-2-yl)-2-(1-(trifluoromethyl)cyclopropyl)ethyl)-4-methyl-1,2,5-oxadiazole-3-carboxamide] gave a pIC50 [1] of under 7.00 and a pIC50 (IL-17A : IL-17RA binding) of under 7.00.
In the case of `CC(C)n1nccc1C(=O)N[C@@H](CC1(C(F)(F)F)CC1)c1nc2ccc([C@H](NC(=O)CC3CC(F)(F)C3)C3CC3)cc2[nH]1` [Example 243, N—((S)-1-(6-((R)-Cyclopropyl(2-(3,3-difluorocyclobutyl)acetamido)methyl)-1H-benzo[d]imidazol-2-yl)-2-(1-(trifluoromethyl)cyclopropyl)ethyl)-1-isopropyl-1H-pyrazole-5-carboxamide], the pIC50 [1] was 7.00 to 7.30 and the pIC50 (IL-17A : IL-17RA binding) was under 7.00.
`Cc1nonc1C(=O)N[C@H](c1nc2ccc([C@H](NC(=O)CC3CC(F)(F)C3)C3CC3)cc2[nH]1)[C@@H]1CCCC(F)(F)C1` [Example 246, N—((S)-(6-((R)-Cyclopropyl(2-(3,3-difluorocyclobutyl)acetamido)methyl)-1H-benzo[d]imidazol-2-yl)((R)-3,3-difluorocyclohexyl)methyl)-4-methyl-1,2,5-oxadiazole-3-carboxamide] gave a pIC50 [1] of over 7.30 and a pIC50 (IL-17A : IL-17RA binding) of over 7.30.
Work on `Cc1nonc1C(=O)N[C@H](c1nc2ccc([C@H](NC(=O)CC3CC(F)(F)C3)C3CC3)cc2[nH]1)[C@H]1CCCC(F)(F)C1` [Example 247, N—((S)-(6-((R)-Cyclopropyl(2-(3,3-difluorocyclobutyl)acetamido)methyl)-1H-benzo[d]imidazol-2-yl)((S)-3,3-difluorocyclohexyl)methyl)-4-methyl-1,2,5-oxadiazole-3-carboxamide] yielded a pIC50 [1] of over 7.30 and a pIC50 (IL-17A : IL-17RA binding) of over 7.30.
In the case of `Cc1nonc1C(=O)N[C@H](c1nc2ccc([C@H](NC(=O)CC3CC(F)(F)C3)C3CC3)cc2[nH]1)[C@@H]1C[C@H]2C[C@H]2C1` [Example 254, N—((S)-((1R,3s,5S)-Bicyclo[3.1.0]hexan-3-yl)(6-((R)-cyclopropyl(2-(3,3-difluorocyclobutyl)acetamido)methyl)-1H-benzo[d]imidazol-2-yl)methyl)-4-methyl-1,2,5-oxadiazole-3-carboxamide], the pIC50 [1] was under 7.00 and the pIC50 (IL-17A : IL-17RA binding) was over 7.30.
